What is called IC50 is the concentration that gives 50% inhibition.

The test system of data set [1] is HBE cells. The experiment in a line: Inhibition of cell proliferation, CCK8 method. The format is cell-based, human. The settings on record: for IC50: HBE normal bronchial epithelial cells, 48 h, CCK8, read-out: Inhibitory activity (IC50) against HBE. Here is the method: (§1) The stock solution was diluted with the corresponding culture medium to the required concentration just before the experiment.
(§2) HBE cells and BEAS-2B cells are normal lung bronchial epithelial cell lines, and both cells were cultured in DMEM high glucose medium (supplemented with 10% fetal bovine serum and 1% double antibody) to the logarithmic growth phase; H460 cells, A549 cells, H1975 cells and HCC827 cells are lung cancer cell lines, and all of them were cultured in RPMI1640 medium (supplemented with 10% fetal bovine serum and 1% double antibody) to the logarithmic growth phase. Among them, H1975 cells and HCC827 cells are EGFR mutant cells.
(§3) The cells were counted, and then seeded in a 96-well plate at a density of 5000 cells/well, 100 μl for each well. The culture plate was moved into a CO2 incubator and incubated for 24 h at 37° C. and 5% CO2. Compounds at different concentrations were added to each well, 5 replicate wells for each concentration, and the cells were treated with the compounds for 48 hours. CCK8 detection reagent was added to each well according to the operation manual, and then the plate was further incubated for 1 h before terminating the culture. 450 nm wavelength was chosen, and the absorbance value of each well was adjusted on the microplate ELISA analyzer. The result was recorded. […] was taken as the horizontal axis, and absorbance as the vertical axis to plot a curve. The half inhibitory concentration (IC50) was calculated by Bliss method. Each experiment was repeated at least 3 times.
(§4) Normal lung cell lines and different lung cancer cell lines were selected for experiments.
Background: Tetrazolium assays rely on reduction of a dye to a coloured formazan, in cell work by metabolically active cells.

Data set [2] relates to H1975 cells. The experiment in a line: Inhibition of cell proliferation, CCK8 method. The settings on record: 48 h, read-out: Inhibitory activity (IC50) against H1975. The format is cell-based, human. On the procedure: as §1, §2, §3, §4
Data set [3] deals with H460 cells. The experiment in a line: Inhibition of cell proliferation, CCK8 method. The format is cell-based, human. The conditions noted are these: 48 h, read-out: Inhibitory activity (IC50) against H460. On the procedure:
(§5) Compounds 1-9 of the present invention were respectively weighed and dissolved in 1 ml of dimethyl sulfoxide (DMSO), to prepare a 10 mM drug solution, which was stored in a refrigerator at −20° C. in the dark after packaging. The stock solution was diluted with the corresponding culture medium to the required concentration just before the experiment.
as §2
as §3, with “When the cells were cultured to 90% of the growth density, the cells were digested with 0.25% trypsin to prepare a single cell suspension. The cells” for “The cells”
(§6) Normal lung cell lines and different lung cancer cell lines were selected for experiments. Amongst, the compound with high anti-cancer activity was screened, whose anti-tumor activity was further studied.

For data set [4], the system named is A549 cells. The experiment in a line: Inhibition of cell proliferation, CCK8 method. The conditions noted are these: A549 lung adenocarcinoma cells, 48 h, read-out: Inhibitory activity (IC50) against A549. It counts as cell-based, human. Here is the method:
as §5, §2
as §3, with “When the cells were cultured to 90% of the growth density, the cells were digested with 0.25% trypsin to prepare a single cell suspension. The cells” for “The cells”
as §6

Data set [5] relates to BEAS-2B cells. The experiment in a line: Inhibition of cell proliferation, CCK8 method. The settings on record: BEAS-2B normal bronchial epithelial cells, 48 h, read-out: Inhibitory activity (IC50) against BEAS-2B. It counts as cell-based, human. On the procedure:
as §5, §2
as §3, with “When the cells were cultured to 90% of the growth density, the cells were digested with 0.25% trypsin to prepare a single cell suspension. The cells” for “The cells”
as §6

Data set [6] deals with T1, EGFR (T790M, C797S, L858R) (Homo sapiens, UniProt P00533, C797S/L858R/T790M).
T1 construct: purchased BPS 40351
The experiment in a line: Kinase inhibition, Lantha Screen assay. It counts as biochemical. The conditions noted are these: for Single-concentration inhibitory activity against EGFR (T790M, C7975, L858R), Mean (100% inhibition): compound concentration 2 nM; for IC50: read-out: Inhibitory activity (IC50) on EGFR (T790M, C797S, L858R). On the procedure:
According to relevant literature, the inhibitory activity of five kinases (EGFR, EGFR-LT, EGFR-LTC, BTK, JAK3) were tested. Note: EGFR, EGFR-LT, EGFR-LTC: wild-type EGFR, L858R/T790M (EGFR-LT), or L858R/T790M/C797S (EGFR-LTC) mutant protein. […]
1) The initial detection concentration of the compound is 10 μM, and the compound was prepared into a 100-fold concentration, namely 1000 μM. 95 μl of 100% DMSO was added to the first well of a 96-well plate, and then 10 μl of 10 mM compound solution was added to prepare a 1000 μM compound solution. 50 μl of […] compound solution prepared above was transferred to a 384-well Echo plate;
2) 50 μl of 100% DMSO was transferred to two empty wells as a control without compound and enzyme;
3) Echo 550 was used to transfer 100 nl of compound solution to a 384-well test plate. 2.3 Kinase reaction and termination
1) EGFR (T790M, C797S, L858R) was added to 1× kinase buffer to form 2× kinase solution;
2) 5 μl of the above 2× kinase solution was transferred to a 384-well reaction plate, and 1× kinase buffer was added to the negative control well, then incubated for 10 min at room temperature;
3) Fluorescein-PolyGT and ATP were added to 1× kinase buffer to form a 2× substrate solution;
4) 5 μl of the above 2× substrate solution was transferred to a 384-well reaction plate;
5) The 384-well reaction plate was incubated at room temperature for 30 min;
6) 2× mixed solution of antibody and EDTA was prepared, of which […] was added to the 384-well reaction plate to stop the reaction;
7) The plate was left at room temperature for 60 min.
Percent inhibition=(max−Lantha signal)/(max−min)*100
“min” is the reading of the control well without enzyme; “max” is the reading of DMSO control well. 3) The data were imported into MS Excel, and IC50 results were subjected to curve fitting by using XLFit excel add-in version 5.4.0.8:
Fitting formula: Y=Bottom+(Top−Bottom)/(1+(IC50/X)^HillSlope)

Data set [7] concerns normal cells and different lung cancer cell lines. The experiment in a line: Inhibition of cell proliferation, CCK8 method, comparison in words over the whole cell panel. The format is cell-based, human. The settings on record: BEAS-2B, HBE, H460, A549, H1975, HCC827; CCK8, 48 h. Here is the method:
as §5, §2
as §3, with “When the cells were cultured to 90% of the growth density, the cells were digested with 0.25% trypsin to prepare a single cell suspension. The cells” for “The cells”
as §6

[8] abbreviates: Homo sapiens, NCI-H1975, H1975 EGFR mutant cells.
The mark [9] stands for this setting: Homo sapiens, NCI-H460, H460 large cell lung cancer cells.

Molecules are shown by their SMILES. Where two headings read alike, the source gives them in different places.

T1 sequence (P00533 25-1210 T790M/C797S/L858R): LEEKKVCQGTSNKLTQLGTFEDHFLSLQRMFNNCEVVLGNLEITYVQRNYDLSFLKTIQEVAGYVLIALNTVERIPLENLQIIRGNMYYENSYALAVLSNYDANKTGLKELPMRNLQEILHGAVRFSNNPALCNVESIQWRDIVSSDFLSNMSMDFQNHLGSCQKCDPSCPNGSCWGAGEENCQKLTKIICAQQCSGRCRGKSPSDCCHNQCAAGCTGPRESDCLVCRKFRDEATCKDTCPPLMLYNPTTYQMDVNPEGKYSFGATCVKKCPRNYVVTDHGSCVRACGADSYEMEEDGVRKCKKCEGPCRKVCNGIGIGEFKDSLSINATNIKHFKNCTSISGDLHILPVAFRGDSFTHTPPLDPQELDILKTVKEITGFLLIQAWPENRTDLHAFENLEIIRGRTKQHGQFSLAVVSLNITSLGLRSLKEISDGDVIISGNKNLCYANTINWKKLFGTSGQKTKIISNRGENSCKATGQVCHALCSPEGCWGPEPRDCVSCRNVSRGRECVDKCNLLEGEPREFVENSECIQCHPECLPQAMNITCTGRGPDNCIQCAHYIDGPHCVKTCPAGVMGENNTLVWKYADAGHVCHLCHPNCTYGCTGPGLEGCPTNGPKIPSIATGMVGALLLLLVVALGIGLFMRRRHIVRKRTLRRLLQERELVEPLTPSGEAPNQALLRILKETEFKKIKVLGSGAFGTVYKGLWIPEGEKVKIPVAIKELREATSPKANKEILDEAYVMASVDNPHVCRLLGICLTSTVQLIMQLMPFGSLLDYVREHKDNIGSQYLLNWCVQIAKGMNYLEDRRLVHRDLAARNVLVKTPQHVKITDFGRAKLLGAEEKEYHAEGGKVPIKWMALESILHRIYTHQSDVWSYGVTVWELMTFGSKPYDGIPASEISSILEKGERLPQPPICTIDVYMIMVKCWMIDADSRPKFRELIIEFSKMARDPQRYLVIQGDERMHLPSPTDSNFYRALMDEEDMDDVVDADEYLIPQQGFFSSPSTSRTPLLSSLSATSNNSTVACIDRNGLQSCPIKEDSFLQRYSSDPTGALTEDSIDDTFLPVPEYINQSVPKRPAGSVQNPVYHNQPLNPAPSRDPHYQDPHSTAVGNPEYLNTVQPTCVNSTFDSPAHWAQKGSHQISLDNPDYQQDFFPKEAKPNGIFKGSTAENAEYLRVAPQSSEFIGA

`C=CC(=O)Nc1cccc(Oc2nc(Nc3ccc(N4CCN(C)CC4)c(Cl)c3)nc3[nH]ccc23)c1` [Compound 2]: the IC50 in data set [1] was determined as 8.73 µM; in data set [2] (H1975 EGFR mutant cells) it was 1.67 µM; in data set [3] (H460 large cell lung cancer cells), 4.86 µM; in data set [4], 1.68 µM; in data set [5] it was 3.8 µM. In data set [6], the “Single-concentration inhibitory activity against EGFR (T790M, C7975, L858R), Mean (100% inhibition)” value is recorded as 9.2 % inhibition. The “inhibitory effect on different cell lines (in words)” value in data set [7] was “basically the same as that of the positive control”.
In the case of `C=CC(=O)Nc1cccc(Oc2nc(Nc3ccc(N4CCN(C)CC4)c(OC)c3)nc3[nH]ccc23)c1` [Compound 4], the IC50 in data set [1] (Homo sapiens) is 12.5 µM; in data set [2] (setting [8]), 22.4 µM; in data set [3] (setting [9]) it was 33.6 µM; in data set [4] (Homo sapiens) it was 20.6 µM; in data set [5] (Homo sapiens) it was 9.89 µM; in data set [6], 1.41 µM. The “Single-concentration inhibitory activity against EGFR (T790M, C7975, L858R), Mean (100% inhibition)” value in data set [6] turned out to be 7.8 % inhibition.
As for `C=CC(=O)Nc1cccc(Oc2nc(Nc3ccc(N4CCN(C)CC4)c([N+](=O)[O-])c3)nc3[nH]ccc23)c1` [Compound 5], the IC50 was 7.54 µM in data set [1] (Homo sapiens); 3.1 µM in data set [2] (setting [8]); 8.02 µM in data set [3] (setting [9]); 2.9 µM in data set [4] (Homo sapiens); 3.68 µM in data set [5] (Homo sapiens); 2.22 µM in data set [6]. In data set [6], the “Single-concentration inhibitory activity against EGFR (T790M, C7975, L858R), Mean (100% inhibition)” value was 5.8 % inhibition.
Consider `C=CC(=O)Nc1cccc(Oc2nc(Nc3ccc(N4CCN(C)CC4)c(N)c3)nc3[nH]ccc23)c1` [Compound 6], for which the IC50 in data set [1] (Homo sapiens) is 22.7 µM; in data set [2] (setting [8]), 3.84 µM; in data set [3] (setting [9]), 26.7 µM; in data set [4] (Homo sapiens), 6.06 µM; in data set [5] (Homo sapiens) it was 7.8 µM; in data set [6], 0.464 µM. In addition, in data set [1] (compared with positive control commercially available Avtinib), the “toxicity to normal epithelial cells HBE cells (in words)” value is “less toxic”. Further, in data set [6], the “Single-concentration inhibitory activity against EGFR (T790M, C7975, L858R), Mean (100% inhibition)” value was 8.0 % inhibition.
In the case of `C=CC(=O)Nc1cccc(Oc2nc(Nc3ccc(N4CCN(C)CC4)c([N+](=O)[O-])c3)nc3c2ccn3COC(=O)C(C)(C)C)c1` [Compound 7], the concentration for half-maximal inhibition (IC50) in data set [1] (Homo sapiens) was found to be 3.61 µM; in data set [2] (setting [8]), 4.12 µM; in data set [3] (setting [9]) it was 4.68 µM; in data set [4] (Homo sapiens), 3.1 µM; in data set [5] (Homo sapiens), 5.73 µM. Also, the “Single-concentration inhibitory activity against EGFR (T790M, C7975, L858R), Mean (100% inhibition)” value in data set [6] came out at 8.4 % inhibition.
Turning to `C=CC(=O)Nc1cccc(Oc2nc(Nc3ccc(N4CCN(C)CC4)c(N)c3)nc3c2ccn3COC(=O)C(C)(C)C)c1` [Compound 8], the concentration for half-maximal inhibition (IC50) in data set [1] (Homo sapiens) was found to be 9.58 µM; in data set [2] (setting [8]), 42 µM; in data set [3] (setting [9]), 7.65 µM; in data set [4] (Homo sapiens) it was 10.8 µM; in data set [5] (Homo sapiens), 9.54 µM. Also, the “Single-concentration inhibitory activity against EGFR (T790M, C7975, L858R), Mean (100% inhibition)” value in data set [6] was found to be 3.6 % inhibition. The “inhibitory effect on different cell lines (in words)” value in data set [7] is recorded as “relatively poor inhibitory effects on other cell lines”.
Take `C=CC(=O)Nc1cccc(Oc2nc(Nc3ccc(N4CCN(C)CC4)c(I)c3)nc3c2ccn3COC(=O)C(C)(C)C)c1` [Compound 9]: the IC50 in data set [1] (Homo sapiens) was 7.5 µM; in data set [2] (setting [8]), 52.3 µM; in data set [3] (setting [9]) it was 25.1 µM; in data set [4] (Homo sapiens), 9.63 µM; in data set [5] (Homo sapiens), 29.1 µM. In addition, the “Single-concentration inhibitory activity against EGFR (T790M, C7975, L858R), Mean (100% inhibition)” value in data set [6] worked out at 2.1 % inhibition. For the same molecule, the “inhibitory effect on different cell lines (in words)” value in data set [7] is recorded as “poorer than that of other compounds”.
